Experimental data reported in patent US4824853A, “α,α-diaryl-4-aryl-4-hydroxy-1-piperidinebutanamide, N-oxides and method of treating diarrhea” (Janssen Pharmaceutica N.V., priority 1986, dated 1989).

Legend:
[1] = Determination of toxicity; set-up: species or system Female Wistar rats; settings: rat, in vivo; dose lethal in 50% of tested animals; route not stated
Protocol: Female Wistar rats were treated with the compound to be tested at various dose levels. LD50 values were determined as that dose in mg/kg body weight being lethal in 50% of the tested animals. Said LD50 values obtained for a compound of the present invention and for 4-(4-chlorophenyl)-4-hydroxy-N,N-dimethyl-α,α-diphenyl-1-piperidinebutanamide (i.e. loperamide) are also listed in table I. From these value it can be concluded that the compounds of the present invention show a decreased toxicity.

diarrhea [2] = experiment: Determination of the antidiarrheal specificity (Tail Withdrawal ED50 / Castor Oil ED50); format: in vivo, Female Wistar rats; settings: ratio ED50 Tail Withdrawal Test / ED50 Castor Oil Test
Protocol: (§1) The safety margin for the antidiarrheal action was determined as the ratio of the LD50 value to the ED50 value obtained in the Castor Oil Test. The antidiarrheal specificity was determined as the ratio of the ED50 value obtained in the Tail Withdrawal Test to the ED50 value obtained in the Castor Oil Test.

[3] = Determination of the safety margin for the antidiarrheal action (LD50 / Castor Oil ED50); set-up: species or system Female Wistar rats; settings: rat, in vivo; ratio LD50 / ED50 Castor Oil Test
Protocol: as §1

tail withdrawal response = experiment: Tail Withdrawal Test in Rats; format: in vivo, Female Wistar rats; settings: intravenous; for ED50: Rattus norvegicus, 55° C. water, response suppressed >10 seconds in 50% of animals, indicator of central effects
Protocol: Female Wistar rats were fasted overnight. Each animal was treated intravenously with the desired dose of the compound to be tested. The thus treated rats were put into individual restraining cages. After the administration of the test compound, the lower 5 cm portion of the tail was immersed into a cup filled with water at a constant temperature of 55° C. The typical tail withdrawal response was evaluated during a 10 seconds period after the immersion. ED50 values in mg/kg body weight were determined at that dose of the test compound capable of suppressing in 50% of the tested animals the typical tail withdrawal response during a time period exceeding 10 seconds.

diarrhea [4] = experiment: Castor Oil Test in Rats; format: in vivo, Female Wistar rats; settings: Rattus norvegicus; intravenous, 1 h before 1 ml castor oil orally; diarrhea absent in 50% of animals 2 hours after castor oil
Protocol: Female Wistar rats were fasted overnight. Each animal was treated intravenously with the desired dose of the compound to be tested. One hour thereafter, the animal received 1 ml of castor oil orally. Each animal was kept in an individual cage and 2 hours after the castor oil treatment, the presence or absence of diarrhea was noted. The ED50 value was determined as that dose in mg/kg body weight, at which no diarrhea was present in 50% of the tested animals. Said ED50 -value for a compound of the present invention and for 4-(4-chlorophenyl)-4-hydroxy-N,N-dimethyl-α,α-diphenyl-1-piperidinebutanamide, which compound is generically designated as loperamide and which is described in U.S. Pat. No. 3,714,159, can be found in table I.

Structure (SMILES): CN(C)C(=O)C(CC[N+]1([O-])CCC(O)(c2ccc(Cl)cc2)CC1)(c1ccccc1)c1ccccc1 (stereo not drawn) [Compound 1, trans-4-(4-chlorophenyl)-4-hydroxy-N,N-dimethyl-α,α-diphenyl-1-piperidinebutanamide, N-oxide]
- LD50 [1]: 28.3 mg/kg
- Antidiarrheal specificity (diarrhea [2]): > 95
- selectivity ratio [3]: 135
- ED50 (tail withdrawal response): > 20 mg/kg
- typical tail withdrawal reflex antagonism (in words) (tail withdrawal response): does not show such activity
- ED50 (diarrhea [4]): 0.21 mg/kg

Structure (SMILES): CN(C)C(=O)C(CCN1CCC(O)(c2ccc(Cl)cc2)CC1)(c1ccccc1)c1ccccc1 [loperamide, 4-(4-chlorophenyl)-4-hydroxy-N,N-dimethyl-α,α-diphenyl-1-piperidinebutanamide]
- LD50 [1]: 5.92 mg/kg
- Antidiarrheal specificity (diarrhea [2]): 29.8
- selectivity ratio [3]: 62.3
- ED50 (tail withdrawal response): 2.83 mg/kg
- typical tail withdrawal reflex antagonism (in words) (tail withdrawal response): antagonizes the typical tail withdrawal reflex
- ED50 (diarrhea [4]): 0.095 mg/kg
